Where two headings read alike, the source gives them in different places.
Legend:
Format in all cases: cell-based
168 GPCRs [1] = biological target: T1, 168 GPCRs (Homo sapiens, UniProt Q9UBY5)
T1 construct: host or cells: PathHunter cell lines
T1 sequence (Q9UBY5 1-353): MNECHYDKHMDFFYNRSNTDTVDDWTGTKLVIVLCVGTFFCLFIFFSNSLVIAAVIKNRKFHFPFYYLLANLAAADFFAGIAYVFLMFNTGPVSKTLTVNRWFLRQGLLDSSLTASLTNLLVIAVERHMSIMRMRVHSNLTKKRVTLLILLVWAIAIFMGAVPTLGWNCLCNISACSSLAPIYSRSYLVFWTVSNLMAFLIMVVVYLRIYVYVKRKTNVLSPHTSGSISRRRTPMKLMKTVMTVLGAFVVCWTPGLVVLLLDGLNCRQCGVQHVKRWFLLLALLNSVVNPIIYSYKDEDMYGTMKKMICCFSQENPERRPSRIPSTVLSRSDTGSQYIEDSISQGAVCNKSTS

168 GPCRs [2] = biological target: T2, 168 GPCRs (Homo sapiens, UniProt P28336); settings: NMBR
T2 construct: host or cells: PathHunter cell lines

168 GPCRs [3] = biological target: T3, 168 GPCRs (Homo sapiens, UniProt P08912)
T3 construct: host or cells: PathHunter cell lines
T3 sequence (P08912 1-532): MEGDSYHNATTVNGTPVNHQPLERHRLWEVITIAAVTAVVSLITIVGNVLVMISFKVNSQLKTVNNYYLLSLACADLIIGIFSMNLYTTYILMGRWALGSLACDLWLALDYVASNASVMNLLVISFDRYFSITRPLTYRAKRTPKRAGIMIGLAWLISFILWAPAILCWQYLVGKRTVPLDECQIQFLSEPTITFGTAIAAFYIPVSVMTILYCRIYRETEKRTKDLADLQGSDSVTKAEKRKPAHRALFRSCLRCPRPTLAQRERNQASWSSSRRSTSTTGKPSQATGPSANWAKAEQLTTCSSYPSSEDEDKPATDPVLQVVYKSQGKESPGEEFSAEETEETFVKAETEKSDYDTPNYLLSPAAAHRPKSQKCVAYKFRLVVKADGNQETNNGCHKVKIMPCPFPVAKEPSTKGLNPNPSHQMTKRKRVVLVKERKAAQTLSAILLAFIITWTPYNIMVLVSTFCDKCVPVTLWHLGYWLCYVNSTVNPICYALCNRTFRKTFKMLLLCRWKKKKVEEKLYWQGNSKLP

168 GPCRs [4] = biological target: T4, 168 GPCRs (Homo sapiens, UniProt P49238)
T4 construct: host or cells: PathHunter cell lines
T4 sequence (P49238 1-355): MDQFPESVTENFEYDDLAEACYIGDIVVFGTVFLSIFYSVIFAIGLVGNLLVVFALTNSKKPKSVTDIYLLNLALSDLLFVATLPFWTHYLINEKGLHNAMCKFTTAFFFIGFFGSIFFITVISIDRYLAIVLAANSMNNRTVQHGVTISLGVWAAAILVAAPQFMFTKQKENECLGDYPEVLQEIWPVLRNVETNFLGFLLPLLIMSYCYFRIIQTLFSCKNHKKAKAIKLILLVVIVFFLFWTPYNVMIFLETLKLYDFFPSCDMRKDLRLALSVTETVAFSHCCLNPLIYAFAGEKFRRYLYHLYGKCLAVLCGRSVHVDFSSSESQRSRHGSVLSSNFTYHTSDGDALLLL

168 GPCRs [5] = biological target: T5, 168 GPCRs (Homo sapiens, UniProt P24530); settings: EDNRB
T5 construct: host or cells: PathHunter cell lines
T5 sequence (P24530 27-442): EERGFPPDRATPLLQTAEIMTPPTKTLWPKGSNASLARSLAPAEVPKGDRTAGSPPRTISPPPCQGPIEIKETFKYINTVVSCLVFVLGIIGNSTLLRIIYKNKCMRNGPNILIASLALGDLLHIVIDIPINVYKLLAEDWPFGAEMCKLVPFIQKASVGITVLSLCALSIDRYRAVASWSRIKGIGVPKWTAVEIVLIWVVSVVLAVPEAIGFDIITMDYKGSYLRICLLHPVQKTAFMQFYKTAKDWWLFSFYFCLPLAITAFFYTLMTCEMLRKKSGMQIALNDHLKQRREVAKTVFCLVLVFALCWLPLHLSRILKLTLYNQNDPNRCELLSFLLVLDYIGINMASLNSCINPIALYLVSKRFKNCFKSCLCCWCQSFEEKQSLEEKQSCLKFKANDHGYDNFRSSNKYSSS

168 GPCRs [6] = biological target: T6, 168 GPCRs (Homo sapiens, UniProt P25021)
T6 construct: host or cells: PathHunter cell lines

168 GPCRs [7] = biological target: T7, 168 GPCRs (Homo sapiens, UniProt Q969V1)
T7 construct: host or cells: PathHunter cell lines
T7 sequence (Q969V1 whole entry): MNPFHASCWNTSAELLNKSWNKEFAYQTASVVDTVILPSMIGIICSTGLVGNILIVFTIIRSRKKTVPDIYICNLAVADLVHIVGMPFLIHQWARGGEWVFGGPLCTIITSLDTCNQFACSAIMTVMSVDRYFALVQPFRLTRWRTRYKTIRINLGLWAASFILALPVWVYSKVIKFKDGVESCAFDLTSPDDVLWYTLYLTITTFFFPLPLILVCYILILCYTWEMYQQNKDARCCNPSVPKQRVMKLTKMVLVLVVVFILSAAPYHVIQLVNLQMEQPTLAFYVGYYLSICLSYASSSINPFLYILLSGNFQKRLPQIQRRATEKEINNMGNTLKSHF

T6 sequence (P25021 whole entry): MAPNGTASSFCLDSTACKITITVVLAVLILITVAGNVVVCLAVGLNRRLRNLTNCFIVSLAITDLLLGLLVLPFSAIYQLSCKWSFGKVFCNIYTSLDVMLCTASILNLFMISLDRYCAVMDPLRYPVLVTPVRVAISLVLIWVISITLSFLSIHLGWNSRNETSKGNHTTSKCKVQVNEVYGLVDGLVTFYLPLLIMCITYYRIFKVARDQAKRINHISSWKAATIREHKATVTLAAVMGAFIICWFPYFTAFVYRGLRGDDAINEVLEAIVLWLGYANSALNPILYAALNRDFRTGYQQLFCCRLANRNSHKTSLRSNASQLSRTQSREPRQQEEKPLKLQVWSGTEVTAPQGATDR
T2 sequence (P28336 whole entry): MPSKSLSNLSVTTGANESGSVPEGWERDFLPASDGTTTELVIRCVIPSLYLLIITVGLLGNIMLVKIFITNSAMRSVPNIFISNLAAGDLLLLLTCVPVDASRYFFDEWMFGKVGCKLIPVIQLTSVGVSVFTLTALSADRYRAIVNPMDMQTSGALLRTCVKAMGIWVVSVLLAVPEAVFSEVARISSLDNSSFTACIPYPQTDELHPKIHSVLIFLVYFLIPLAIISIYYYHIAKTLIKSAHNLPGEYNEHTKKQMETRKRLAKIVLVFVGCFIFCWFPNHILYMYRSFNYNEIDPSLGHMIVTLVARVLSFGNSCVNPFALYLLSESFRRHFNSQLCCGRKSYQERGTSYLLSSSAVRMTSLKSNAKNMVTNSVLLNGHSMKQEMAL

Compound	% Agonist Activity (168 GPCRs [1]; EDG7, 1 uM) [%]	% Antagonist Activity (168 GPCRs [1]; EDG7, 1 uM) [%]	% Agonist Activity (168 GPCRs [1]; EDG7, 10 uM) [%]	% Antagonist Activity (168 GPCRs [1]; EDG7, 10 uM) [%]	% Agonist Activity (168 GPCRs [2]; 1 uM) [%]	% Antagonist Activity (168 GPCRs [2]; 1 uM) [%]	% Agonist Activity (168 GPCRs [2]; 10 uM) [%]	% Antagonist Activity (168 GPCRs [2]; 10 uM) [%]	% Agonist Activity (168 GPCRs [3]; CHRM5, 1 uM) [%]	% Antagonist Activity (168 GPCRs [3]; CHRM5, 1 uM) [%]	% Agonist Activity (168 GPCRs [3]; CHRM5, 10 uM) [%]	% Antagonist Activity (168 GPCRs [3]; CHRM5, 10 uM) [%]	% Agonist Activity (168 GPCRs [4]; CX3CR1, 1 uM) [%]	% Antagonist Activity (168 GPCRs [4]; CX3CR1, 1 uM) [%]	% Agonist Activity (168 GPCRs [4]; CX3CR1, 10 uM) [%]	% Antagonist Activity (168 GPCRs [4]; CX3CR1, 10 uM) [%]	% Agonist Activity (168 GPCRs [5]; 1 uM) [%]	% Antagonist Activity (168 GPCRs [5]; 1 uM) [%]	% Agonist Activity (168 GPCRs [5]; 10 uM) [%]	% Antagonist Activity (168 GPCRs [5]; 10 uM) [%]	also measured
CNC(C)Cc1ccc2c(c1)OCO2 (centres unmarked) [MDMA, 3,4-Methylenedioxy methamphetamine, reference compound]	-2.8	-7	-2.4	0.8	0	-2.5	0.1	4.3	8.8	11.2	8.3	14.4	-1.3	6.5	-1.4	3.7	0	2.5	-0.3	6.4	% Agonist Activity (168 GPCRs [6]; HRH2, 1 uM): 3.3%; % Antagonist Activity (168 GPCRs [6]; HRH2, 1 uM): 8.4%; % Agonist Activity (168 GPCRs [6]; HRH2, 10 uM): -3.7%; % Antagonist Activity (168 GPCRs [6]; HRH2, 10 uM): 15.3%; % Agonist Activity (168 GPCRs [7]; MCHR2, 1 uM): 0.8%; % Antagonist Activity (168 GPCRs [7]; MCHR2, 1 uM): -25%; % Agonist Activity (168 GPCRs [7]; MCHR2, 10 uM): 0.3%; % Antagonist Activity (168 GPCRs [7]; MCHR2, 10 uM): -17.3%
CNC(C)C(=O)c1ccc2c(c1)OCO2 (centres unmarked) [methylone]	3	19.5	1.1	17.9	1.1	10.3	1.2	13.2	7.2	-8	8.7	-7.6	0	-0.2	-0.4	-6.1	0.7	17.5	-0.1	10.9	% Agonist Activity (168 GPCRs [6]; HRH2, 1 uM): -2.5%; % Antagonist Activity (168 GPCRs [6]; HRH2, 1 uM): 7.1%; % Agonist Activity (168 GPCRs [6]; HRH2, 10 uM): -2.8%; % Antagonist Activity (168 GPCRs [6]; HRH2, 10 uM): 8.1%; % Agonist Activity (168 GPCRs [7]; MCHR2, 1 uM): -1.5%; % Antagonist Activity (168 GPCRs [7]; MCHR2, 1 uM): 2%; % Agonist Activity (168 GPCRs [7]; MCHR2, 10 uM): -0.7%; % Antagonist Activity (168 GPCRs [7]; MCHR2, 10 uM): -4.5%

— paper PMC10882719 (Frontiers in Neuroscience, 2024)
